Test results as given in patent US20120045515A1, “HOLLOW SILICA PARTICLE WITH A POLYMER THEREON” (priority 2009, published 2012).
Values after ≈ are worked out from the molar mass of the structure shown.

Key:
[1] = Release profile of paclitaxel by dialysis in 1×PBS buffer at 37° C., HPLC; format: physicochemical; conditions: after 330 h, 1×PBS buffer solution
Procedure: In a typical process, 0.7 mg of paclitaxel loaded PEG-graft-hollow silica was dispersed in 3 ml of 1×PBS buffer solution under ultrasonication for 2 h at a temperature below 30° C. The solution was transferred into a dialysis tube with a molecular weight cutting of 10 000. The dialysis tube was placed into a conical flask containing 40 ml of 1×PBS buffer solution. The conical flask was kept in a water bath at 37° C. and was stirred at 100 rpm. The outside buffer solution was exchanged with a fresh buffer solution at a predetermined time interval to maintain a sink condition. The released paclitaxel was extracted from the drawn buffer solution using 4 ml of dichloromethane. After shaking and setting down, the dichloromethane solution was collected. After chloromethane was evaporated at room temperature, the solid reconstituted in 2 mL of acetonitrile/water (50:50; v/v) for HPLC measurement to determine PTX amounts.
To measure the release profile of free PTX, 2 mg of PTX was firstly dissolved in 4 mL methanol to get a solution of a concentration of 0.5 mg/mL. After ultrasonication for 40 min, 0.4 mL of the solution was taken out and was dried by evaporating methanol. The solid was dissolved in 3 mL of 1×PBS solution (pH 7.4), and the release profile was monitored.

U-87 MG cells = assay: In vitro cytotoxicity, MTT assay, in U-87 MG cells; format: cell-based; conditions: Homo sapiens, incubation for 72 h
Procedure: (§1) Cytotoxicity of pure PTX, PEG-g-hollow silica vesicles, and PTX loaded PEG-g-hollow silica vesicles was evaluated in MCF-7 cell lines and U-87 MG cell lines. Viability of the cells was assessed by the standard thiazolyl blue [3-(4,5-dimethyliazolyl-2)-2,5-diphenyl tetrazolium bromide] (MTT) assay. This colorimetric assay allows determination of the number of viable cells through the metabolic activity of the cells.
(§2) The cancer cells were seeded in 96-well plates with a seeding density 10,000 cells/well and were cultured in DMEM supplemented with 10% FBS and 1% penicillin/streptomycin solution in an incubator at 37° C., 5% CO2, and 95% relative humidity. The cells were allowed to adhere to the well bottom upon overnight incubation. Then the medium was replaced with the sample solutions of different concentrations. Meanwhile, wells containing only cell culture medium were prepared as untreated controls. At the predetermined time, the medium containing samples was aspirated and the wells were washed with 1×PBS solution for two times to removed non-internalized sample. […] The absorbance intensity of the solution was then quantified spectrophotometrically using a microplate reader (TECAN SpectraFluor Plus) at 570 nm. […]
(§3) where Abssample was the absorbance for the cells treated with the samples, while Abscontrol was the absorbance for the untreated control cells. […]

MCF-7 cells = assay: In vitro cytotoxicity, MTT assay, in MCF-7 cells; format: cell-based; conditions: Homo sapiens, MCF7, incubation for 72 h
Procedure: as §1, §2, §3

[2] = Saturated solubility of PTX in methanol; format: physicochemical; conditions: organic solvent or mixture, saturated solution in methanol

PTX released [1]: 5% | solubility [2]: 50 mg/mL (≈ 58600 µM)
Compound: CC(=O)O[C@H]1C(=O)[C@@]2(C)[C@H]([C@H](OC(=O)c3ccccc3)[C@]3(O)C[C@H](OC(=O)[C@H](O)[C@@H](NC(=O)c4ccccc4)c4ccccc4)C(C)=C1C3(C)C)[C@]1(OC(C)=O)CO[C@@H]1C[C@@H]2O [free PTX, paclitaxel]
IC50 (U-87 MG cells): 0.073 µg/mL (≈ 0.0855 µM) | IC50 (MCF-7 cells): 0.1 µg/mL (≈ 0.117 µM)
